Laboratory results published in patent US6653289B1, “L-arabino-disaccharides of anthracyclines, processes for their preparation, and pharmaceutical compositions containing them” (Menarini Ricerche S.p.A., priority 1999, dated 2003).

Columns and labels:
[1] = tested on: H460 (pulmonary carcinoma); test: cytotoxicity in vitro on H460; assay type: cell-based; settings: read-out: IC50, concentration necessary for 50% inhibition of diseased cells growth, 24-h exposure to the drug
From the text: (§1) (R8=H, R9=R10=R12=OH, R11=NH2) described in patent application WO 95/09173 on lines H460 (pulmonary carcinoma) and GLC-4 (pulmonary microcarcinoma).

[2] = tested on: GLC-4 (pulmonary microcarcinoma); test: cytotoxicity in vitro on GLC-4; assay type: cell-based, human; settings: read-out: IC50, concentration necessary for 50% inhibition of diseased cells growth, 24-h exposure to the drug
From the text: as §1

[3] = tested on: pulmonary microcytoma GLC-4; test: activity in vivo on human tumour line implanted s.c. in naked mice; settings: GLC-4 s.c. in naked mice, 6 mg/kg every 3-4 days, 5 cycles (total 30 mg/kg); for LCK (Log Cell Kill): T-C/DT×3.32; for TWI % (300 mg), Tumour Weight Inhibition %: determined 7-10 days after last treatment
Procedure: The activity in vivo of (Ia), compared with that of (V), was also evaluated on a human tumour line implanted s.c. in naked mice (pulmonary microcytoma GLC-4) after administration of 6 mg/kg of drug every 3-4 days, for 5 treatment cycles.
The results obtained are shown in Table 2, which reports the Tumour Weight Inhibition % (TWI% determined 7-10 days after the last treatment) and the Log Cell Kill [LCK in animals treated according to the formula: T-C/DT×3.32, where T and C are the days that tumours take to reach the significant weight fixed in each test. in treated animals (T) and in controls (C)].

| SMILES | IC50 [1] | IC50 [2] | LCK (Log Cell Kill) [3] | TWI % (300 mg), Tumour Weight Inhibition % [3] |
| --- | --- | --- | --- | --- |
| C[C@@H]1O[C@@H](O[C@@H]2[C@H](C)O[C@@H](O[C@H]3C[C@](O)(C(=O)CO)Cc4c(O)c5c(c(O)c43)C(=O)c3ccccc3C5=O)C[C@@H]2O)C[C@H](N)[C@H]1O.Cl [Ia, 7-O-[2,6-dideoxy-4-O-(2,3,6-trideoxy-3-amino-α-L-arabino-hexopyranosyl)-α-L-lyxo-hexopyranosyl]-4-demethoxy-doxorubicinone chlorhydrate] | 10 nM | 11 nM | 1.1 | 93% |
| CC1OC(OC2C(O)CC(OC3CC(O)(C(=O)CO)Cc4c(O)c5c(c(O)c43)C(=O)c3ccccc3C5=O)OC2C)CC(N)C1O.Cl [V, 7-O-[2,6-dideoxy-4-O-(2,3,6-trideoxy-3-amino-α-L-lyxo-hexopyranosyl)-α-L-lyxo-hexopyranosyl]-4-demethoxy-doxorubicinone chlorhydrate] | 14 nM | 55 nM | 0.4 | 60% |
